{
  "source": "patent US20140045801A1",
  "about": "“PRAMIPEXOLE TRANSDERMAL DELIVERY FOR SEVERE HEADACHES” (MYLAN INC., priority 2012, published 2014)",
  "origin": "cited, not measured here",
  "details": "free base; moderate lipophilicity",
  "data": [
    {"smiles": "CCCN[C@H]1CCc2nc(N)sc2C1", "note": "[Pramipexole free base, Pramipexole]", "values": [
      {"measurement": "log P", "value": 2.35}
    ]}
  ]
}
